# Laboratory results from patent publication US5539119A, “Indole derivatives” (priority 1990, dated 1996).
# Like-named read-outs stand apart in the source and are kept apart here.
# Columns and labels:
# κ opioid receptor = molecular target: T1, κ opioid receptor (Cavia porcellus, UniProt P41144); test: Bonding (binding) assay, guinea pig brain homogenate, EKC (hot) / naloxone (cold)
# T1 construct: the homogenate of the brain of a guinea pig; from tissue; host or cells: guinea pig brain homogenate
# T1 sequence (P41144 whole entry): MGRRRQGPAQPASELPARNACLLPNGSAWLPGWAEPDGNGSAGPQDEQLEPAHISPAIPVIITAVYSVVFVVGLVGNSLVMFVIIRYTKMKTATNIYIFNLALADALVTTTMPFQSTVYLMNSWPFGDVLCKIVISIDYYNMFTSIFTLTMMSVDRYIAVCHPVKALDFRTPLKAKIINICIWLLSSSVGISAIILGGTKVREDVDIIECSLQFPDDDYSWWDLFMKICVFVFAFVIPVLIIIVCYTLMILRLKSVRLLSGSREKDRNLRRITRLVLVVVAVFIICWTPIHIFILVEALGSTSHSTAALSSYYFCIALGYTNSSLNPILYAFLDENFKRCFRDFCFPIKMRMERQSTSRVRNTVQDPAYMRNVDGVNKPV
# Method: (§1) In the test for bonding, the homogenate of the brain of a guinea pig was diluted with Tris buffer in a ratio calculated to give to the produced solution a protein content of 0.7 mg per prot/tube was used as incorporated in the reaction solution. With regard to ligands for binding assay, 3H-DAGO (μ), DPDPE (δ), and EKC (κ) were used for hot samples and naloxone (μ), DADLE (δ), and naloxone (κ) for cold samples.
# δ opioid receptor [1] = molecular target: T2, δ opioid receptor (Cavia porcellus, UniProt A0A286XTF2); test: Bonding (binding) assay, guinea pig brain homogenate, DPDPE (hot) / DADLE (cold)
# T2 construct: the homogenate of the brain of a guinea pig; from tissue; host or cells: guinea pig brain homogenate
# T2 sequence (A0A286XTF2 1-366): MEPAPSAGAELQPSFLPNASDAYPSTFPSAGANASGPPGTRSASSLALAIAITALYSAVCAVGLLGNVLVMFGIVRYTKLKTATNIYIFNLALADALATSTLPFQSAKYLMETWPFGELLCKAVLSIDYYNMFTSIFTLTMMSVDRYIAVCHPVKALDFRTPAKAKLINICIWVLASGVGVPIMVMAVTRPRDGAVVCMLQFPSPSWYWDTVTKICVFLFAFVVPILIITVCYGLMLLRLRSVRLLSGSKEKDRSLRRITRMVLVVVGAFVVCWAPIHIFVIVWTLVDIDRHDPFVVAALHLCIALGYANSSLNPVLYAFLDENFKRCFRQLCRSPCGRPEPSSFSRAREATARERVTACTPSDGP
# Method: as §1
# mouse T cells = test: Inhibiting proliferation of mouse T cells by Con-A stimulation ([3H]thymidine uptake, spleen cells); type: cell-based; details: for IC50: ConA-stimulated mouse T cells
# Method: Now, the immunosuppressive activity of the compound 19 which is representative of the compounds of the present invention will be shown. Activity in inhibiting proliferation of mouse T cells by Con-A stimulation
# A monocellular suspension was prepared by sterilely removing the spleen from a mouse and passing the spleen through a mesh. This suspension was adjusted to a concentration of 5×10^6 cells/ml and dispensed by the unit of 100 μl in all the individual wells of a 96-well plate. […] Eight hours before completion of the incubation, [^3 H]thymidine was added to the contents of the wells in a fixed ratio of 2 μCi/10 μl/well. Eight hours after this addition, the cells in the wells were collected on filter papers with the aid of a cell harvester. The cells on the filter papers were dried, then combined with a toluene type scintillator, and counted for the radioactivity of the [^3 H] thymidine occluded in the cells by means of a scintillation counter.
# The ratio of suppression of T cell proliferation was calculated in accordance with the following formula:
# Rate of suppression=(Radioactivity in the absence of compound-Radioactivityafter addition of compound)/(Radioactivity in the absence of compound-Radioactivity in the absence of ConA)
# δ-receptor = molecular target: T3, δ-receptor (Mus musculus, UniProt P32300); test: Antagonism to DPDPE in Mouse Vas Deferens (MVD)
# T3 construct: from tissue; host or cells: mouse vas deferens
# T3 sequence (P32300 whole entry): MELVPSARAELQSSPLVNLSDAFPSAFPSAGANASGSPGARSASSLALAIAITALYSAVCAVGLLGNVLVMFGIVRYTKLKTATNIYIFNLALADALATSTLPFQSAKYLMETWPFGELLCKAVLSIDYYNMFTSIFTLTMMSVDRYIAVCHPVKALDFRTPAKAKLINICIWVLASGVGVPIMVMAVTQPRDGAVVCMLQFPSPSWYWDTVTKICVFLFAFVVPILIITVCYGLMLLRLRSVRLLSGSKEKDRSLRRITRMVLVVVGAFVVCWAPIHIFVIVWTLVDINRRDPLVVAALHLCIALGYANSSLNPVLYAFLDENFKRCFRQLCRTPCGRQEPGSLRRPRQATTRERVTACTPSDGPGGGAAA
# [2] = system: Guinea Pig Ileal Longitudinal Muscle; test: Agonist activity in Guinea Pig Ileal Longitudinal Muscle (GPI); details: for IC50: guinea pig ileum
# Method: (§2) The test of the compounds of this invention for agonist and antagonist activities was carried out in according to the method proposed by Takemori et al. (Takemori, A, E. et al.: Eur. J. Pharmacal., 1982, 85, 163) using Guinea Pig Ileal Longitudinal Muscle Mouse Vas Deferens (MVD).
# Mouse Vas Deferens (MVD) = test: Agonist activity in Mouse Vas Deferens (MVD); details: read-out: MVD IC50
# Method: as §2
# μ opioid receptor = molecular target: T4, μ opioid receptor (Cavia porcellus, UniProt A0ACM8Q262); test: Bonding (binding) assay, guinea pig brain homogenate, 3H-DAGO (hot) / naloxone (cold); details: for Ki: guinea pig brain homogenate; for Ki ratio κ/μ: selectivity ratio
# T4 construct: 3H-DAGO (DAMGO) radioligand, cold naloxone
# T4 sequence (A0ACM8Q262 1-400): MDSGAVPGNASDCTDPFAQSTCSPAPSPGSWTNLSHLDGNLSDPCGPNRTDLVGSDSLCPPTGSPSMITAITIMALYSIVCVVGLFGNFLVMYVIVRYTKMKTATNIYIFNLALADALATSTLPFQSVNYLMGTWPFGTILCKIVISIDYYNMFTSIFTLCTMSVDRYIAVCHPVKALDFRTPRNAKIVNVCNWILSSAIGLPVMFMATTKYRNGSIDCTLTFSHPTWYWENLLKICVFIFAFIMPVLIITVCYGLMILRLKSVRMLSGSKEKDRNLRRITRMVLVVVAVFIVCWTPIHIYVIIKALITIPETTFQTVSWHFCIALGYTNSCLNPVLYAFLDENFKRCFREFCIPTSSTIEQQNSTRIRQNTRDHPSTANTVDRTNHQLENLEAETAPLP
# Method: as §1
# [3] = system: Guinea Pig Ileal Longitudinal Muscle; test: GPI, shift of the compound's effect by naloxone or nor-BNI; design: GPI nor-BN1 Ke: unit not given here
# Method: as §2
# δ opioid receptor [4] = test: Bonding (binding) assay, guinea pig brain homogenate, DPDPE (hot) / DADLE (cold); details: μ/δ
# Method: as §1
# [5] = guinea pig brain homogenate, read-out: Bonding assay Ki value δ
compound,measurement,setting,value
"Oc1cccc([C@]23CCN(CC4CC4)C[C@@H]2Cc2c([nH]c4ccccc24)C3)c1 (relative stereo) [Compound 19, 2-Cyclopropylmethyl-4aα-(3-hydroxyphenyl)-1,2,3,4,4a,5,11,11β-octahydro-6H-indolo[2,3-g]isoquinoline]",Ki,κ opioid receptor,951 nM
same,Ki,δ opioid receptor [1],3.5 nM
same,"activity in immunosuppression / inhibiting T cell proliferation, in words",mouse T cells,clearly strong activity in immunosuppression
same,inhibition at 0.1 µg/mL,"mouse T cells; Mus musculus, T-cell, 48 h, 0.1 μg/ml, n = 3, read-out: Ratio of suppression of T cell proliferation",6%
same,inhibition at 0.5 µg/mL,"mouse T cells; Mus musculus, T-cell, 48 h, 0.5 μg/ml, n = 3, read-out: Ratio of suppression of T cell proliferation",0%
same,inhibition at 0.75 µg/mL,"mouse T cells; Mus musculus, T-cell, 48 h, 0.75 μg/ml, n = 3, read-out: Ratio of suppression of T cell proliferation",18%
same,inhibition at 1 µg/mL,"mouse T cells; Mus musculus, T-cell, 48 h, 1.0 μg/ml, n = 3, read-out: Ratio of suppression of T cell proliferation",1%
same,inhibition at 2.5 µg/mL,"mouse T cells; Mus musculus, T-cell, 48 h, 2.5 μg/ml, n = 3, read-out: Ratio of suppression of T cell proliferation",33%
same,inhibition at 5 µg/mL,"mouse T cells; Mus musculus, T-cell, 48 h, 5.0 μg/ml, n = 3, read-out: Ratio of suppression of T cell proliferation",94%
same,inhibition at 7.5 µg/mL,"mouse T cells; Mus musculus, T-cell, 48 h, 7.5 μg/ml, n = 3, read-out: Ratio of suppression of T cell proliferation",100%
same,inhibition at 10 µg/mL,"mouse T cells; Mus musculus, T-cell, 48 h, 10.0 μg/ml, n = 3, read-out: Ratio of suppression of T cell proliferation",100%
same,inhibition at 12.5 µg/mL,"mouse T cells; Mus musculus, T-cell, 48 h, 12.5 μg/ml, n = 3, read-out: Ratio of suppression of T cell proliferation",100%
same,inhibition at 15 µg/mL,"mouse T cells; Mus musculus, T-cell, 48 h, 15.0 μg/ml, n = 3, read-out: Ratio of suppression of T cell proliferation",100%
same,inhibition at 17.5 µg/mL,"mouse T cells; Mus musculus, T-cell, 48 h, 17.5 μg/ml, n = 3, read-out: Ratio of suppression of T cell proliferation",100%
same,inhibition at 20 µg/mL,"mouse T cells; Mus musculus, T-cell, 48 h, 20.0 μg/ml, n = 3, read-out: Ratio of suppression of T cell proliferation",100%
same,IC50,"mouse T cells; Mus musculus, T-cell, read-out: IC50, activity in inhibiting T cell hyperplasia (Table 3)",2.7 µg/mL
same,IC50,"mouse T cells; Mus musculus, T-cell, read-out: IC50 value, immunosuppression (text to Table 2)",3 µg/mL
same,"MVD Antagonism to DPDPE, DR",δ-receptor; (20 nM),5.17
same,"MVD Antagonism to DPDPE, DR",δ-receptor; (50 nM),9.62
same,Kb,"δ-receptor; MVD Antagonism to DPDPE, pA2, (20 nM)",5.01 nM
same,Kb,"δ-receptor; MVD Antagonism to DPDPE, pA2, (50 nM)",6.03 nM
same,"effect on inhibition of contraction by DPDPE, in words",δ-receptor; Mouse Vas Deferens,selectively attenuate the inhibition of contraction by DPDPE
same,"effect on contraction of guinea pig ileum, in words",[2],avoids affecting the inhibition of contraction of the ileum of a guinea pig
same,IC50,[2],34600 nM
same,IC50,Mouse Vas Deferens (MVD),28900 nM
same,Ki,μ opioid receptor,716 nM
same,GPI naloxone DR,[3],0.93
same,GPI nor-BN1 DR,[3],0.95
"CN1CC[C@]2(c3cccc(O)c3)Cc3[nH]c4ccc(Cl)cc4c3C[C@H]2C1 (relative stereo) [Compound 6, 2-Methyl-4aα-(3-hydroxyphenyl)-9-chloro-1,2,3,4,4a,5,11,11aβ-octahydro-6H-indolo[2,3-q]isoquinoline]",Ki,κ opioid receptor,> 27400 nM
same,Ki,δ opioid receptor [1]; [5],1100 nM
same,Ki ratio μ/δ,δ opioid receptor [4],> 24.9
same,Ki ratio μ/δ,δ opioid receptor [4]; selectivity ratio,> 6.45
same,Kb,δ-receptor; at 100 nM,240 nM
same,"MVD Antagonism to DPDPE at 100 nM, DR",δ-receptor; at 100 nM,5.16
same,IC50,[2],7900 nM
same,IC50,Mouse Vas Deferens (MVD),23600 nM
same,Ki,μ opioid receptor,> 7090 nM
same,Ki ratio κ/μ,μ opioid receptor,> 3.86
same,GPI naloxone DR,[3],0.86
same,GPI nor-BN1 DR,[3],1.23
same,GPI nor-BN1 Ke,[3],77.0
same,GPI nor-BN1 pA2,[3],7.16
"CN1CC[C@]2(c3cccc(O)c3)Cc3[nH]c4ccccc4c3C[C@H]2C1 (relative stereo) [Compound 2, 2-Methyl-4aα-(3-hydroxyphenyl)-1,2,3,4,4a,5,11,11aβ-octahydro-6H-indolo[2,3-g]isoquinoline]",Ki,κ opioid receptor,> 5970 nM
same,Ki,δ opioid receptor [1]; [5],193 nM
same,Ki ratio μ/δ,δ opioid receptor [4],> 30.9
same,Ki ratio μ/δ,δ opioid receptor [4]; selectivity ratio,8.55
same,Kb,δ-receptor; at 100 nM,138 nM
same,"MVD Antagonism to DPDPE at 100 nM, DR",δ-receptor; at 100 nM,8.14
same,IC50,[2],65100 nM
same,IC50,Mouse Vas Deferens (MVD),68600 nM
same,Ki,μ opioid receptor,1650 nM
same,Ki ratio κ/μ,μ opioid receptor,> 3.62
same,GPI naloxone DR,[3],1.12
same,GPI nor-BN1 DR,[3],1.25
same,GPI nor-BN1 Ke,[3],301
same,GPI nor-BN1 pA2,[3],6.65
"CN1CC[C@]2(c3cccc(O)c3)Cc3c(c4ccccc4n3C)C[C@H]2C1 (relative stereo) [Compound 12, 2-Methyl-4aα-(3-hydroxyphenyl)-1,2,3,4,4a,5,11,11aβ-octahydro-6-methyl-indolo[2,3-g]isoquinoline]",Ki,κ opioid receptor,380 nM
same,Ki,δ opioid receptor [1]; [5],120 nM
same,Ki ratio μ/δ,δ opioid receptor [4],3.17
same,Ki ratio μ/δ,δ opioid receptor [4]; selectivity ratio,10.3
same,Kb,δ-receptor; at 100 nM,138 nM
same,"MVD Antagonism to DPDPE at 100 nM, DR",δ-receptor; at 100 nM,8.27
same,IC50,[2],38700 nM
same,IC50,Mouse Vas Deferens (MVD),25000 nM
same,Ki,μ opioid receptor,1230 nM
same,Ki ratio κ/μ,μ opioid receptor,0.31
same,GPI naloxone DR,[3],0.61
same,GPI nor-BN1 DR,[3],0.70
"Cc1ccc2[nH]c3c(c2c1)C[C@H]1CN(C)CC[C@]1(c1cccc(O)c1)C3 (relative stereo) [Compound 4, 2-Methyl-4aα-(3-hydroxyphenyl)-9-methyl-1,2,3,4,4a,5,11,11aβ-octahydro-6H-indolo[2,3-q]isoquinoline]",Ki,κ opioid receptor,> 11600 nM
same,Ki,δ opioid receptor [1]; [5],1240 nM
same,Ki ratio μ/δ,δ opioid receptor [4],> 9.35
same,Ki ratio μ/δ,δ opioid receptor [4]; selectivity ratio,5.18
same,Kb,δ-receptor; at 100 nM,427 nM
same,"MVD Antagonism to DPDPE at 100 nM, DR",δ-receptor; at 100 nM,3.37
same,IC50,[2],28000 nM
same,IC50,Mouse Vas Deferens (MVD),46100 nM
same,Ki,μ opioid receptor,6420 nM
same,Ki ratio κ/μ,μ opioid receptor,> 1.81
same,GPI naloxone DR,[3],0.62
same,GPI nor-BN1 DR,[3],1.17
"CN1CC[C@]2(c3cccc(O)c3)Cc3[nH]c4c(F)cccc4c3C[C@H]2C1 (relative stereo) [Compound 8, 2-Methyl-4aα-(3-hydroxyphenyl)-7-fluoro-1,2,3,4,4a,5,11,11aβ-octahydro-6H-indolo[2,3-g]isoquinoline]",Ki,κ opioid receptor,> 6750 nM
same,Ki,δ opioid receptor [1],59 nM
same,Ki ratio μ/δ,δ opioid receptor [4],> 114
same,Ki ratio μ/δ,δ opioid receptor [4]; selectivity ratio,77.8
same,Kb,"δ-receptor; MVD Antagonism to DPDPE at 100 nM, pA2, at 100 nM",70.8 nM
same,"MVD Antagonism to DPDPE at 100 nM, DR",δ-receptor; at 100 nM,15.0
same,IC50,[2],23000 nM
same,IC50,Mouse Vas Deferens (MVD),25900 nM
same,Ki,μ opioid receptor,4590 nM
same,Ki ratio κ/μ,μ opioid receptor,> 1.47
same,GPI naloxone DR,[3],0.80
same,GPI nor-BN1 DR,[3],1.04
